A value given as a limit tells only on which side of the number the result lay.

The target of one test is T1, human S1P1 receptor (Homo sapiens, UniProt P21453).
T1 construct: expressed in transfected cells; membranes were used
T1 sequence (P21453 whole entry): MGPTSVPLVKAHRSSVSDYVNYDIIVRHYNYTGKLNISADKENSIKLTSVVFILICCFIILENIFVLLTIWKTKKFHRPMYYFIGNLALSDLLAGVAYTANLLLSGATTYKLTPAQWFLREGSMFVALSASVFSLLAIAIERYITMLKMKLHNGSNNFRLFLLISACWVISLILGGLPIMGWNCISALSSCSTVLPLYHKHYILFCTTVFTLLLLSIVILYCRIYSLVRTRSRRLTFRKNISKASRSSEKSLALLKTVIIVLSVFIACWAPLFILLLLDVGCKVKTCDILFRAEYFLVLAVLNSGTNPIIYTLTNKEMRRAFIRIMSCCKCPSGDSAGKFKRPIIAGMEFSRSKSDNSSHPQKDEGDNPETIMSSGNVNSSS
Briefly: GTP γ35S binding assay for S1P1 activity. The class given is biochemical. The settings on record: membranes of cells stably expressing the S1P1 receptor, read-out: Activity potency: S1P1 receptor from GTP γ35S, S1P1 EC50. As to the method: Compounds were tested for S1P1 activity using the GTP γ^35S binding assay. These compounds may be assessed for their ability to activate or block activation of the human S1P1 receptor in cells stably expressing the S1P1 receptor.
GTP γ^35S binding was measured in the medium containing (mM) HEPES 25, pH 7.4, MgCl2 10, NaCl 100, dithitothreitol 0.5, digitonin 0.003%, 0.2 nM GTP γ^355, and 5 μg membrane protein in a volume of 150 μl. Test compounds were included in the concentration range from 0.08 to 5,000 nM unless indicated otherwise. Membranes were incubated with 100 μM 5′-adenylylimmidodiphosphate for 30 min, and subsequently with 10 μM GDP for 10 min on ice. Drug solutions and membrane were mixed, and then reactions were initiated by adding GTP γ^355 and continued for 30 min at 25° C. Reaction mixtures were filtered over Whatman GF/B filters under vacuum, and washed three times with 3 mL of ice-cold buffer (HEPES 25, pH7.4, MgCl2 10 and NaCl 100). Filters were dried and mixed with scintillant, and counted for ^35S activity using a 8-counter. Agonist-induced GTP γ^355 binding was obtained by subtracting that in the absence of agonist. Binding data were analyzed using a non-linear regression method. In case of antagonist assay, the reaction mixture contained 10 nM S1P in the presence of test antagonist at concentrations ranging from 0.08 to 5000 nM.
Turning to `Cc1cc(CNCCCP(=O)(O)O)ccc1SCCCCCc1ccc(F)cc1` [Compound 9, {3-[(4-{[5-(4-fluorophenyl)pentyl]thio}-3-methylbenzyl)amino]propyl}phosphonic acid], the concentration giving a half-maximal response (EC50) turned out to be 27.2 nM.
On to `Cc1cc(CNCCCP(=O)(O)O)ccc1SCCCCCc1ccccc1` [Compound 20, [3-({3-methyl-4-[(5-phenylpentyl)thio]benzyl}amino)propyl]phosphonic acid], for which the EC50 worked out at 3.2 nM.
Still for that read-out and setting: in the case of `O=P(O)(O)CCCNCc1ccc(SCCCCCc2ccccc2)cc1Cl` [Compound 4, [3-({2-chloro-4-[(5-phenylpentyl)thio]benzyl}amino)propyl]phosphonic acid] it was 2.2 nM; in that of `O=P(O)(O)C(F)(F)CCNCc1ccc(SCCCCCc2ccccc2)c(OC(F)(F)F)c1` [Compound 18, [1,1-difluoro-3-({4-[(5-phenylpentyl)thio]-3-(trifluoromethoxy)benzyl}amino)propyl]phosphonic acid], 13.6 nM; in that of `COc1ccc(CCCCCSc2ccc(CNCCCP(=O)(O)O)cc2C(F)(F)F)cc1` [Compound 11, (3-{[4-{[5-(4-methoxyphenyl)pentyl]thio}-3-(trifluoromethyl)benzyl]amino}propyl)phosphonic acid], 60.6 nM.
Turning to `O=P(O)(O)CCCNCc1ccc(SCCCCCc2ccc(Cl)cc2)c(OC(F)(F)F)c1` [Compound 14, (3-{[4-{[5-(4-chlorophenyl)pentyl]thio}-3-(trifluoromethoxy)benzyl]amino}propyl)phosphonic acid], the EC50 came out at 7.9 nM.
Still for that read-out and setting: in the case of `O=P(O)(O)C(F)(F)CCNCc1ccc(SCCCCCc2ccccc2)c(Cl)c1` [Compound 17, [3-({3-chloro-4-[(5-phenylpentyl)thio]benzyl}amino)-1,1-difluoropropyl]phosphonic acid] it was 4.8 nM; in that of `O=P(O)(O)CCCNCc1ccc(SCCCCCc2ccccc2)c(F)c1` [Compound 21, [3-({3-fluoro-4-[(5-phenylpentyl)thio]benzyl}amino)propyl]phosphonic acid], 0.3 nM; in that of `O=P(O)(O)CCCNCc1ccc(SCCCCCc2ccccc2)c(OC(F)(F)F)c1` [Compound 7, [3-({4-[(5-phenylpentyl)thio]-3-(trifluoromethoxy)benzyl}amino)propyl]phosphonic acid], 0.6 nM.
On to `O=P(O)(O)CCCNCc1ccc(SCCCCCc2ccccc2)cc1` [Compound 6, [3-({4-[(5-phenylpentyl)thio]benzyl}amino)propyl]phosphonic acid], for which the EC50 is 3.3 nM.
As to `CC(C)(CCCCSc1ccc(CNCCCP(=O)(O)O)cc1Br)c1ccccc1` [Compound 165, [3-({3-bromo-4-[(5-methyl-5-phenylhexyl)thio]benzyl}amino)propyl]phosphonic acid], the EC50 was 13.1 nM.
As for `O=P(O)(O)CCCNCc1ccc(SCCCCCc2ccc(Cl)cc2)c(C(F)(F)F)c1` [Compound 13, (3-{[4-{[5-(4-chlorophenyl)pentyl]thio}-3-(trifluoromethyl)benzyl]amino}propyl)phosphonic acid], the EC50 came out at 4.6 nM.
For `O=P(O)(O)CCCNCc1ccc(SCCCCCc2ccc(F)cc2)c(OC(F)(F)F)c1` [Compound 15, (3-{[4-{[5-(4-fluorophenyl)pentyl]thio}-3-(trifluoromethoxy)benzyl]amino}propyl)phosphonic acid], the EC50 came to 1.6 nM.
In the case of `Cc1ccc(CCCCCSc2ccc(CNCCCP(=O)(O)O)cc2OC(F)(F)F)cc1` [Compound 16, (3-{[4-{[5-(4-methylphenyl)pentyl]thio}-3 (trifluoromethoxy)benzyl]amino}propyl)phosphonic acid], the EC50 was 3.5 nM.
As for `N#Cc1cc(CNCCCP(=O)(O)O)ccc1SCCCCCc1ccccc1` [Compound 8, [3-({3-cyano-4-[(5-phenylpentyl)thio]benzyl}amino)propyl]phosphonic acid], the EC50 stood at 6.1 nM.
Take `O=P(O)(O)CCCNCc1ccc(SCCCCCc2ccccc2)c(Br)c1` [Compound-1, [3-({3-bromo-4-[(5-phenylpentyl)thio]benzyl}amino)propyl]phosphonic acid]: the EC50 was 1.8 nM.
For `CC(CCNCc1ccc(SCCCCCc2ccccc2)c(Cl)c1)P(=O)(O)O` (stereo not drawn) [Compound 19, [3-({3-chloro-4-[(5-phenylpentyl)thio]benzyl}amino)-1-methylpropyl]phosphonic acid], the concentration for a half-maximal effect (EC50) is 8.8 nM.
The same measure, in the same setting: in the case of `O=P(O)(O)CCCNCc1cc(F)c(SCCCCC2(c3ccccc3)CCCCC2)cc1F` [Compound 50, {3-[(2,5-difluoro-4-{[4-(1-phenylcyclohexyl)butyl]thio}benzyl)amino]propyl}phosphonic acid] it was 0.9 nM; in that of `O=P(O)(O)CCCNCc1ccc(SCCCCC2(c3ccccc3)CCCCC2)c(Cl)c1` [Compound 164, {3-[(3-chloro-4-{[4-(1-phenylcyclohexyl)butyl]thio}benzyl)amino]propyl}phosphonic acid], 2 nM.
As for `O=P(O)(O)CCCNCc1ccc(SCCCCCc2ccc(F)cc2)c(C(F)(F)F)c1` [Compound 10, (3-{[4-{[5-(4-fluorophenyl)pentyl]thio}-3-(trifluoromethyl)benzyl]amino}propyl)phosphonic acid], the EC50 worked out at 5.4 nM.
In the case of `O=P(O)(O)CCCNCc1ccc(SCCCCCc2ccccc2)c(Cl)c1` [Compound 5, [3-({3-chloro-4-[(5-phenylpentyl)thio]benzyl}amino)propyl]phosphonic acid], the half-maximal effective concentration (EC50) was 1.5 nM.
Take `N#Cc1cc(CNCCCP(=O)(O)O)ccc1SCCCCCc1ccc(F)cc1` [Compound 22, {3-[(3-cyano-4-{[5-(4-fluorophenyl)pentyl]thio}benzyl)amino]propyl}phosphonic acid]: the EC50 stood at 2.4 nM.
Still for that read-out and setting: to `O=P(O)(O)CCCNCc1ccc(SCCCCCc2ccc(F)cc2)cc1C(F)(F)F` [Compound 24, (3-{[4-{[5-(4-fluorophenyl)pentyl]thio}-2-(trifluoromethyl)benzyl]amino}propyl)phosphonic acid] belongs 8.7 nM; to `O=P(O)(O)CCCNCc1ccc(SCCCCCc2ccccc2)cc1C(F)(F)F` [Compound 3, [3-({4-[(5-phenylpentyl)thio]-2-(trifluoromethyl)benzyl}amino)propyl]phosphonic acid], 13.6 nM.
Turning to `COc1ccc(CCCCCSc2ccc(CNCCCP(=O)(O)O)cc2OC(F)(F)F)cc1` [Compound 163, (3-{[4-{[5-(4-methoxyphenyl)pentyl]thio}-3-(trifluoromethoxy)benzyl]amino}propyl)phosphonic acid], the concentration for a half-maximal effect (EC50) worked out at 67.9 nM.
`Cc1ccc(CCCCCSc2ccc(CNCCCP(=O)(O)O)cc2C)cc1` [Compound 23, {3-[(3-methyl-4-{[5-(4-methylphenyl)pentyl]thio}benzyl)amino]propyl}phosphonic acid]: the EC50 turned out to be 41.4 nM.

For a further test, the system named is blood lymphocytes. The experiment in a line: Lymphopenia assay in mice. It is filed as in vivo. Conditions: 10 mg/Kg subcutaneously, female C57BL6 mice, after 5 hours, FIG. 1. The protocol: Test drugs are prepared in a solution containing 3% (w/v) 2-hydroxy propyl β-cyclodextrin (HPBCD) and 1% DMSO to a final concentration of 1 mg/ml, and subcutaneously injected to female C57BL6 mice (CHARLES RIVERS) weighing 20-25 g at the dose of 0.5 to 10 mg/Kg. Blood samples are obtained by puncturing the submandibular skin with a Goldenrod animal lancet at 5, 24, 48, 72, and 96 hrs post drug application. Blood is collected into microvettes (SARSTEDT) containing EDTA tripotassium salt. Lymphocytes in blood samples are counted using a HEMAVET Multispecies Hematology System, HEMAVET HV950FS (Drew Scientific Inc.).
A lymphopenia assay in mice; as previously described, was employed to measure the in vivo blood lymphocyte depletion after dosing with the test compound: [3-({3-bromo-4-[(5-phenylpentyl)thio]benzyl}amino)propyl]phosphonic acid Compound-1. This S1P1 modulator, [3-({3-bromo-4-[(5-phenylpentyl)thio]benzyl}amino)propyl]phosphonic acid Compound-1 is useful for S1P-related diseases and exemplified by the lymphopenia in vivo response. […] Lymphocytes in blood samples were counted using a HEMAVET Multispecies Hematology System, HEMAVET HV950FS (Drew Scientific Inc.). […]
Regarding `O=P(O)(O)CCCNCc1ccc(SCCCCCc2ccccc2)c(Br)c1` [Compound-1, [3-({3-bromo-4-[(5-phenylpentyl)thio]benzyl}amino)propyl]phosphonic acid], the “lymphocyte count (number of lymphocytes in blood)” value was < 1 10^3/μL blood.
